Assay results published in PubChem BioAssay AID1645848.
≈ marks a conversion by molar mass, not a printed value.

Settings: buffer; pH 7.4; 6.0 h; 150.0 µM

SMILES	solubility kinetic
Cc1ccc(-c2cc(C(=O)NCc3cnn(C)c3C)c3cc(Br)ccc3n2)cc1	< 1 µg/mL
CCOc1ccc(CNC(=O)CCCn2nc(C)c3c(C)n(-c4ccc(C)cc4)nc3c2=O)cc1	1.48 µg/mL (≈ 3.12 µM)
COC(=O)c1ccc2c(C(=Nc3ccc(N(C)C(=O)CN4CCN(C)CC4)cc3)c3ccccc3)c(O)[nH]c2c1	< 1 µg/mL
Nc1c(-c2ccccc2)cnc2c(-c3ccccc3)cnn12	< 1 µg/mL
Cc1cc(C)nc(NC(=S)N2CCN(Cc3cccc(C(F)(F)F)c3)CC2)c1	35.9 µg/mL (≈ 87.8 µM)
O=C(c1nc(-c2ccc(Cl)cc2Cl)c2cnccn12)N1CCOCC1	20.2 µg/mL (≈ 53.6 µM)
O=C(Cn1ccn2nc3c(c2c1=O)CCCCC3)Nc1ccc2c(c1)OCO2	< 1 µg/mL
O=S(=O)(Nc1ccccc1N1CCCCC1)c1ccc(Cl)s1	3.68 µg/mL (≈ 10.3 µM)
O=S(=O)(Nc1nccs1)c1ccc(NCc2cc(F)ccc2O)cc1	> 56 µg/mL
COc1ccc(C(=O)Nc2ccc3c(c2)N(C2CCCC2)C(=O)c2ccccc2S3)cc1OC	< 1 µg/mL
NC(=O)C1CCN(c2ncc(-c3cccc(F)c3)s2)CC1	17.7 µg/mL (≈ 58.1 µM)
Fc1cc(Nc2nc(-c3ccncc3)nc3ccccc23)ccc1-c1cc(F)c(F)c(F)c1	< 1 µg/mL
COc1ccc(Cn2c(C(=O)O)c(CNCc3ccco3)c3ccc(C)cc32)cc1	> 60 µg/mL
COc1cc(-c2cc3c(nc2-c2ccccc2)nc(C(=O)NC2CCN(C)CC2)n3C)ccn1	> 67 µg/mL
Cc1cc(-c2nnc3n2CCCCC3)c(C)n1-c1ccc(Cl)cc1	25.9 µg/mL (≈ 75.9 µM)
CC1=C(C(=O)Nc2nncs2)C2(CCCC2)N=C(Nc2nc3ccccc3o2)N1	< 1 µg/mL
Fc1ccccc1-c1nc(NCc2ccc(-c3cccnc3)cc2)c2ccccc2n1	< 1 µg/mL
O=C1Nc2cc(Cl)ccc2Nc2cscc21	9.92 µg/mL (≈ 39.6 µM)
Cc1n[nH]c(C)c1CCc1nc2c3ccccc3nc(SCC(=O)Nc3ccc(F)cc3)n2n1	< 1 µg/mL
CCCCNC(=O)CN1CCN(c2ncc(NC(=O)c3ccc(Cl)cc3)cc2C(=O)O)CC1	> 70 µg/mL
CCCCCn1cc2c(c1-c1ccc(Br)cc1)c(=O)n(C)c(=O)n2C	< 1 µg/mL
CNC(=O)C1CCN(C(=O)c2ccc(-c3ncc4cnc(-c5ccccc5)cn34)cc2)CC1	40.8 µg/mL (≈ 92.7 µM)
CC(=O)Nc1ccc(S(=O)(=O)Nc2nccs2)cc1	> 44 µg/mL
COc1ccc(-c2ccc3ncc4c(c3c2)n(-c2ccc(N3CCNCC3)c(C(F)(F)F)c2)c(=O)n4C)cn1	< 1 µg/mL
COc1cccc(CNc2ccc(S(=O)(=O)Nc3nccs3)cc2)c1OC	3.6 µg/mL (≈ 8.88 µM)

SMILES	solubility kinetic
COC(=O)c1cccc(NC(=O)c2cnc(-c3ccc(F)cc3)nc2-c2ccncc2)c1	< 1 µg/mL
Cc1ccc(-c2cc(C(=O)Nc3ccncc3)c3ccccc3n2)cc1	< 1 µg/mL
Cc1ccccc1C(=O)N1CCc2cc(-c3cccc(NC(=O)Cc4ccc5c(c4)OCO5)c3)ccc21	< 1 µg/mL
CCN(CC)S(=O)(=O)c1ccc2oc(C(=O)Nc3ccc(Br)cc3F)c(C)c2c1	< 1 µg/mL
Cc1ccc(S(=O)(=O)n2cc(C(=O)Nc3nc(-c4ccccc4)cs3)c3ccccc32)cc1	2.2 µg/mL (≈ 4.65 µM)
Fc1ccc(Nc2nc(-c3ccncc3Cl)nc3ccccc23)cc1F	< 1 µg/mL
C=Cc1ccc(Cn2c(C(=O)O)c(CNC3CCCCC3)c3ccc(OC)cc32)cc1	< 1 µg/mL
O=C(O)C1CCN(c2ncc(-c3ccc4c(c3)OCCCO4)s2)CC1	> 53 µg/mL
O=C1C(SCCO)=C(SCCO)C(=O)c2ccccc21	> 31 µg/mL
COc1ccc(C2=Nc3ccc(C)cc3C(c3ccccc3)N2CC(=O)NN)cc1 (configuration not stated)	> 59 µg/mL
Cn1nnnc1Sc1ncnc2scc(-c3ccc(F)cc3)c12	15.3 µg/mL (≈ 44.5 µM)
CC(C)(C)c1cc(NC(=O)Nc2ccc(-c3cn4c(n3)sc3cc(OCCN5CCOCC5)ccc34)cc2)no1	< 1 µg/mL
COc1ncc(-c2n[nH]c3c2CC(=O)N(c2ccccc2)C3)cn1	5.46 µg/mL (≈ 17 µM)
O=C(CCCN1CCC(n2c(=O)[nH]c3ccccc32)CC1)c1ccc(F)cc1	33.3 µg/mL (≈ 87.2 µM)
CCOc1ccc(NC(=O)c2cccc(-n3cccc3)c2)cc1S(=O)(=O)N1CCOCC1	3 µg/mL (≈ 6.59 µM)
CCCN(CCC)CCc1cccc2c1CC(=O)N2	23.2 µg/mL (≈ 88.9 µM)
COc1ccccc1C(=O)Nc1nnc(SCc2cc(=O)c3ccccc3[nH]2)s1	< 1 µg/mL
O=C(Nc1cccc(S(=O)(=O)C(F)(F)F)c1)c1ccccc1NC(=O)c1ccccc1OCC(F)(F)F	< 1 µg/mL
COc1cc(OC)cc(-c2csc(N3CCC(C(N)=O)CC3)n2)c1	> 51 µg/mL
C#CCNC(=O)c1nc(-c2ccc([S+](C)(=O)[O-])cc2)c2ccccn12	1.27 µg/mL (≈ 3.59 µM)
CCOc1ccc(CCNC(=O)c2cc3ccccc3n2Cc2ccc(Cl)c(F)c2)cc1OCC	< 1 µg/mL
COC(=O)c1ccnc(-c2cc(C(=O)Nc3ccc(C4(N)CC4)cc3)ccn2)c1	12.8 µg/mL (≈ 32.8 µM)
CC(C)Oc1ccc(-c2csc(N3CCC(C(N)=O)CC3)n2)cc1	11.7 µg/mL (≈ 33.8 µM)
COC(=O)[C@@]12OC[C@]34[C@H]([C@@H](O)[C@@H]1O)[C@@]1(C)CC(=O)C(O)=C(C)[C@@H]1C[C@H]3OC(=O)[C@H](OC(=O)/C=C(\C)C(C)C)[C@@H]24	> 81 µg/mL
COc1ccc(-c2csc(N3CCC(C(N)=O)CC3)n2)cc1OC	17.5 µg/mL (≈ 50.5 µM)

SMILES	solubility kinetic
O=C(Nc1nnc(C2CCCCC2)s1)c1ccc(Br)s1	< 1 µg/mL
CCC(=O)NC(c1cccs1)c1cc([N+](=O)[O-])c2cccnc2c1O (configuration not stated)	> 53 µg/mL
Cc1ccc(NC(=O)c2cc(S(=O)(=O)NCCC3=CCCCC3)ccc2F)cc1F	< 1 µg/mL
O=C1CCCC2=C1C(c1ccncc1Cl)N=C(Nc1nc3ccccc3o1)N2 (configuration not stated)	8.82 µg/mL (≈ 22.4 µM)
CNS(=O)(=O)c1cc(-c2nn3c(C)nnc3c3ccccc23)ccc1C	4.84 µg/mL (≈ 13.2 µM)
Fc1ccc(Oc2nc(-c3ccncc3)nc3ccccc23)cc1F	6.95 µg/mL (≈ 20.7 µM)
Cc1ccc(-n2ncc3c(NCCCN(C)C)ncnc32)cc1Cl	> 51 µg/mL
COCCNC(=O)c1ccc(Cn2c(=S)[nH]c3cc4c(cc3c2=O)OCO4)cc1	6.98 µg/mL (≈ 16.9 µM)
COc1cccc(OC)c1C(=O)Nc1ccccc1C(=O)Nc1cccc(C(F)(F)F)c1	< 1 µg/mL
Fc1cc(Nc2nc(-c3ccncc3)nc3ccccc23)ccc1-c1ccncc1	< 1 µg/mL
O=c1c(O)c(-c2ccc(O)cc2)oc2cc(O)cc(O)c12	1.35 µg/mL (≈ 4.73 µM)
CC1(C)CC(=O)C2=C(C1)NC(Nc1nc3ccccc3o1)=NC2c1ccccc1Cl (configuration not stated)	< 1 µg/mL
CN(Cc1cccs1)c1ncnc2ccc(-c3ccc4c(c3)OCO4)cc12	< 1 µg/mL
CN(C)C(=O)c1cccc(-c2csc(N3CCC(C(N)=O)CC3)n2)c1	> 53 µg/mL
COC12C(COC(N)=O)C3=C(C(=O)C(C)=C(N)C3=O)N1CC1C2N1C (configuration not stated)	> 51 µg/mL
Cc1ccccc1NC(=O)Nc1cccs1	> 34 µg/mL
CC(C)(C)C1CCc2nc(NC(=O)c3cccc(Cl)c3)sc2C1 (configuration not stated)	< 1 µg/mL
CCc1ccc(-n2c(=O)c3cccnc3n2CC(=O)Nc2cc(OC)ccc2OC)cc1	< 1 µg/mL
CO[C@@H]1/C=C\O[C@@]2(C)Oc3c(C)c(O)c4c(c3C2=O)C(=N[C@H]2CC[C@H](O)O[C@@H]2C)C=C(NC(=O)/C(C)=C\C(=O)[C@@H]2C[C@@H]2[C@@H](O)[C@H](C)[C@@H](O)[C@H](C)[C@H](OC(C)=O)[C@@H]1C)C4=O	32.3 µg/mL (≈ 39.3 µM)
CCOc1ccc(C(=O)Nc2ccc(S(=O)(=O)N3CCCCC3c3cccnc3)cc2)cc1 (configuration not stated)	< 1 µg/mL
O=C(c1cnc(N2CCCCC2)c2ccccc12)N1CCN(c2ccccn2)CC1	> 59 µg/mL
COc1ccc(CCNc2ncnc3c2c(-c2ccccc2)cn3-c2cccc(Cl)c2)cc1OC	< 1 µg/mL
Cc1cc(-c2nnc3n2CCCCC3)c(C)n1-c1ccc(C(C)(C)C)cc1	20.9 µg/mL (≈ 57.6 µM)
O=C(Nc1ccc(S(=O)(=O)Nc2nccs2)cc1)c1ccnc2ccccc12	2.55 µg/mL (≈ 6.2 µM)
S=c1[nH]c2ccccc2n1CCc1ccccc1	5.04 µg/mL (≈ 19.8 µM)

SMILES	solubility kinetic
O=C1CCCC2=C1C1(CCS(=O)(=O)C1)N=C(Nc1nc3ccccc3o1)N2 (configuration not stated)	1.02 µg/mL (≈ 2.65 µM)
O=C(NCCCn1ccnc1)c1ccc(-c2ncc3cnc(-c4cccc(F)c4)cn23)cc1	32.5 µg/mL (≈ 73.9 µM)
COc1nccc(-c2nc(Nc3ccc(F)c(F)c3)c3ccccc3n2)c1OC	< 1 µg/mL
O=S(=O)(c1ccccc1)N1CCN(c2nc(-c3ccc(Br)cc3)cs2)CC1	1.23 µg/mL (≈ 2.66 µM)
Cc1ccc(S(=O)(=O)Nc2cnccc2C(=O)Nc2nc(-c3ccco3)cs2)cc1	> 65 µg/mL
Cc1cccc(-n2c(C)cc(C=C(C#N)C#N)c2C)c1	< 1 µg/mL
COc1cccc(Nc2ncc(-c3cccc(N(C)C)c3)c3c2OCC3)c1	< 1 µg/mL
COc1ccc(-n2nc(C3CCCN(CC4CCCCC4)C3)[nH]c2=O)cc1 (configuration not stated)	> 37 µg/mL
O=C1CCCC2=C1C(C1CCCCC1Cl)N=C(NC1NC3CCCCC3S1)N2 (configuration not stated)	< 1 µg/mL
CCn1c(C(=O)N2CCCC(C(=O)NCCc3ccc(C)cc3)C2)cc2sccc21 (configuration not stated)	17.1 µg/mL (≈ 40.3 µM)
CCCCOC(=O)c1ccnc2cc(C(OCCN3CCCCC3)c3ccccc3Cl)sc12 (configuration not stated)	< 1 µg/mL
Cc1ccc(NS(=O)(=O)c2ccc(C(=O)Nc3nc(-c4ccccc4)cs3)cc2)cc1	< 1 µg/mL
CC(C)(C)OC(=O)N[C@@H](Cc1ccc(O[S+](=O)([O-])c2cccc3cnccc23)cc1)C(=O)N1CCN(Cc2ccccc2)CC1	< 1 µg/mL
Cc1[nH]c2ccccc2c1CN1CCN(c2ccccn2)CC1	34.4 µg/mL (≈ 112 µM)
COc1cccc(N2CCN(c3ncc4c(n3)CCN(Cc3ccc(Br)cc3)C4)CC2)c1	< 1 µg/mL
CC1CCN(S(=O)(=O)c2ccc3c(c2)C(C)(C)C(=O)N3CC(=O)NCc2ccco2)CC1	34.2 µg/mL (≈ 74.4 µM)
CCCCN(CC)CCNC(=O)c1cc2c(-c3ccc(Cl)cc3)nn(C)c2s1	> 62 µg/mL
CC(=O)c1c(C)[nH]c(C(=O)Nc2cccc(S(=O)(=O)N3CCOCC3)c2)c1C	> 60 µg/mL
N#Cc1ccc(NS(=O)(=O)c2ccc(NC(=O)Cc3ccc(F)c(Cl)c3)cc2)cc1	< 1 µg/mL
Cc1noc(C)c1C(=O)N1CCC2(CCCN(C(c3ccccc3)c3ccccc3)C2)CC1	1.15 µg/mL (≈ 2.6 µM)
O=C(c1ccc(-c2ncc3cnc(-c4ccccc4)cn23)cc1)N1CCS(=O)(=O)CC1	65.1 µg/mL (≈ 150 µM)
CCS(=O)(=O)c1nc(-c2ccc(Cl)cc2)cc(C(F)(F)F)n1	8.53 µg/mL (≈ 24.3 µM)
